Several values for one entry are separate records, joined by “and”; a condition that tells them apart may be missing. Identical values can stand only once. Toxic doses and inconclusive results are not listed. Rule for the calls: active = survival T/C of 150% or more; inactive = T/C below 125% in these data.
System: P388 leukemia ip, CD2F1 mice, survival T/C
Assay: NCI In Vivo Anticancer Drug Screen. Data for tumor model P388 Leukemia (intraperitoneal) in CD2F1 (CDF1) mice
Details: endpoint: median survival time, higher = longer survival
Method in brief: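 Mice carrying the transplanted tumor received test compound or vehicle. Survival was recorded in each group, and the value is the treated-group measurement divided by that of the vehicle-treated control group.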

[1] = dose: 50.0 mg/kg/injection, schedule: Q01DX009 (ip), vehicle: Klucel (hydroxypropylcellulose) (HPC)
[2] = dose: 100.0 mg/kg/injection, schedule: Q01DX009 (ip), vehicle: Klucel (hydroxypropylcellulose) (HPC)
[3] = dose: 200.0 mg/kg/injection, schedule: Q01DX009 (ip), vehicle: Klucel (hydroxypropylcellulose) (HPC)
[4] = dose: 100.0 mg/kg/injection, schedule: Q04DX003 (ip), vehicle: saline with Tween-80
[5] = dose: 200.0 mg/kg/injection, schedule: Q04DX003 (ip), vehicle: saline with Tween-80
[6] = dose: 400.0 mg/kg/injection, schedule: Q04DX003 (ip), vehicle: saline with Tween-80
[7] = dose: 50.0 mg/kg/injection, schedule: Q01DX009 (ip), vehicle: saline with Tween-80
[8] = dose: 100.0 mg/kg/injection, schedule: Q01DX009 (ip), vehicle: saline with Tween-80
[9] = dose: 200.0 mg/kg/injection, schedule: Q01DX009 (ip), vehicle: saline with Tween-80
[10] = dose: 25.0 mg/kg/injection, schedule: Q01DX005 (ip), vehicle: saline
[11] = dose: 50.0 mg/kg/injection, schedule: Q01DX005 (ip), vehicle: saline

Measured: T/C

O=C1CC2CC(=O)C(S(=O)c3ccccc3)C2C1 (configuration not stated)
inactive: dose: 60.0 mg/kg/injection, schedule: Q01DX005 (ip), vehicle: saline with Tween-80 96 % of control | dose: 120.0 mg/kg/injection, schedule: Q01DX005 (ip), vehicle: saline with Tween-80 99 % of control

CSc1c(C(C)(C)O)cc(C(C)(C)C)cc1C(C)(C)O
inactive: [1] 93 % of control | [2] 93 % of control | [3] 94 % of control

CCN(C(=O)COc1ccc(Cl)cc1Cl)c1ccccc1C
inactive: [4] 100 % of control | [5] 100 % of control | [6] 100 % of control

Nc1nc(N)c(N=O)c(Nc2cccc(Br)c2)n1
inactive: dose: 12.5 mg/kg/injection, schedule: Q01DX009 (ip), vehicle: saline with Tween-80 99 % of control | dose: 25.0 mg/kg/injection, schedule: Q01DX009 (ip), vehicle: saline with Tween-80 99 % of control | [7] 90 % of control | [8] 91 % of control

c1ccc(SC(Sc2ccccc2)=C2CCCCC2)cc1
inactive: [1] 100 % of control | [2] 106 % of control | [3] 90 % of control

CCCCNC(=O)Oc1ccc(OCc2ccccc2)cc1
inactive: [4] 100 % of control | [5] 95 % of control | [6] 90 % of control

CCOCc1cnc(C)nc1N
inactive: [7] 110 % of control | [8] 120 % of control | [9] 110 % of control

COc1cc2c(cc1OC)C(C)P(C)(=O)CC2O (configuration not stated)
inactive: dose: 100.0 mg/kg/injection, schedule: Q04DX002 (ip), vehicle: saline with Tween-80 100 % of control | dose: 100.0 mg/kg/injection, schedule: Q04DX002 (ip), vehicle: saline 109 % of control | dose: 200.0 mg/kg/injection, schedule: Q04DX002 (ip), vehicle: saline with Tween-80 107 % of control | dose: 200.0 mg/kg/injection, schedule: Q04DX002 (ip), vehicle: saline 98 % of control | dose: 400.0 mg/kg/injection, schedule: Q04DX002 (ip), vehicle: saline with Tween-80 100 % of control | dose: 400.0 mg/kg/injection, schedule: Q04DX002 (ip), vehicle: saline 98 % of control

O=[N+]([O-])c1ccc(/C=C/Sc2ccccc2)o1
inactive: dose: 50.0 mg/kg/injection, schedule: Q01DX009 (ip), vehicle: suspension in saline 99 % of control | dose: 100.0 mg/kg/injection, schedule: Q01DX009 (ip), vehicle: suspension in saline 98 % of control

S=C(Nc1ccccc1)P(c1ccccc1)c1ccccc1.[Ir]
inactive: dose: 50.0 mg/kg/injection, schedule: Q01DX005 (ip), vehicle: Klucel (hydroxypropylcellulose) (HPC) 90 % of control | dose: 100.0 mg/kg/injection, schedule: Q01DX005 (ip), vehicle: Klucel (hydroxypropylcellulose) (HPC) 99 % of control | dose: 200.0 mg/kg/injection, schedule: Q01DX005 (ip), vehicle: Klucel (hydroxypropylcellulose) (HPC) 97 % of control

ClC(Cl)(Cl)C(c1cccs1)c1cccs1
inactive: [1] 103 % of control | [2] 100 % of control | [3] 109 % of control | dose: 400.0 mg/kg/injection, schedule: Q01DX009 (ip), vehicle: Klucel (hydroxypropylcellulose) (HPC) 104 % of control

CCC(=O)Nc1ccc(Br)cc1
inactive: [7] 102 % of control | [8] 94 % of control | [9] 96 % of control | dose: 400.0 mg/kg/injection, schedule: Q01DX009 (ip), vehicle: saline with Tween-80 96 % of control

CCCCN(CCCC)P1(=O)OP(=O)(N(CCCC)CCCC)OP(=O)(N(CCCC)CCCC)O1 (configuration not stated)
inactive: dose: 12.5 mg/kg/injection, schedule: Q01DX005 (ip), vehicle: saline 97 % of control | [10] 101 % of control | [11] 101 % of control and 96 % of control

Cc1c(Cl)ccc2c1NC(=O)C2(O)CC(=O)c1ccccc1 (configuration not stated)
inactive: dose: 60.0 mg/kg/injection, schedule: Q01DX005 (ip), vehicle: Klucel (hydroxypropylcellulose) (HPC) 99 % of control | dose: 120.0 mg/kg/injection, schedule: Q01DX005 (ip), vehicle: Klucel (hydroxypropylcellulose) (HPC) 97 % of control | dose: 240.0 mg/kg/injection, schedule: Q01DX005 (ip), vehicle: Klucel (hydroxypropylcellulose) (HPC) 99 % of control

Cc1ccc(C2SCC(=O)N2c2nncs2)s1 (configuration not stated)
inactive: dose: 50.0 mg/kg/injection, schedule: Q01DX005 (ip), vehicle: saline with Tween-80 100 % of control | dose: 100.0 mg/kg/injection, schedule: Q01DX005 (ip), vehicle: saline with Tween-80 92 % of control | dose: 200.0 mg/kg/injection, schedule: Q01DX005 (ip), vehicle: saline with Tween-80 94 % of control

CCN(CC)CCOc1ccc(-c2cc(-c3ccccc3)nc(N)n2)cc1
inactive: [10] 106 % of control | [11] 98 % of control and 100 % of control and 106 % of control | dose: 100.0 mg/kg/injection, schedule: Q01DX005 (ip), vehicle: saline 111 % of control and 114 % of control and 123 % of control
